Results published in PubChem BioAssay AID670 (University of Pittsburgh Molecular Library Screening Center, 2007).
pIC50: −log10 of the molar value.

Molecular target: M-phase inducer phosphatase 2 (Homo sapiens) (UniProt P30305)
Experiment: Cdc25B phosphatase blockers with beta-mercaptoethanol – biochemical, beta-mercaptoethanol present, catalytic domain, IC50, Cdc25B inhibitor project, late-stage follow-up (AID 670)
Conditions: recombinant Cdc25B phosphatase activity

Chain of M-phase inducer phosphatase 2 (Homo sapiens) (P30305 whole entry, looked up, the tested form may be a part): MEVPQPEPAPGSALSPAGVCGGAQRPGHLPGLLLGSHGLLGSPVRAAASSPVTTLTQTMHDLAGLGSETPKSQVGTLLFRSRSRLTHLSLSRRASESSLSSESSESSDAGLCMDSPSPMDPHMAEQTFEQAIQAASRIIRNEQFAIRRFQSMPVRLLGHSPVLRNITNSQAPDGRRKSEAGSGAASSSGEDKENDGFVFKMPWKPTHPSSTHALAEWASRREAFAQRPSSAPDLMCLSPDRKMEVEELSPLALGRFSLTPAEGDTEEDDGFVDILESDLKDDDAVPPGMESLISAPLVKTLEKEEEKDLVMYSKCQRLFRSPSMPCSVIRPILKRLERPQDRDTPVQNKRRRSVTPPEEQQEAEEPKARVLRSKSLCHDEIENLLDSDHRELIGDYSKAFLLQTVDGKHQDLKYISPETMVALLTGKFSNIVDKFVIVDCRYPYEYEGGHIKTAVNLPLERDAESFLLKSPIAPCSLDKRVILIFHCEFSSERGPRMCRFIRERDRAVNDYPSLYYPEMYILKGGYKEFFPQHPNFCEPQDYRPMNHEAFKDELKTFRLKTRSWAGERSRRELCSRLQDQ

Compound | pIC50
COc1cccc2c1NC(C(=O)O)C1CC=CC21 (configuration not stated) | 5.09
O=C(OC1CCCCC1)c1ccc2c(c1)C1C=CCC1C(C(=O)O)N2 (configuration not stated) | 5.42
